How the values were obtained:
Assay in all cases: relative viability (nuclei count vs DMSO), 5 days (fraction); higher = more cells survive
CUDC-101 + Lapatinib = compound: C#Cc1cccc(Nc2ncnc3cc(OC)c(OCCCCCCC(=O)NO)cc23)c1 [CUDC-101] + CS(=O)(=O)CCNCc1ccc(-c2ccc3ncnc(Nc4ccc(OCc5cccc(F)c5)c(Cl)c4)c3c2)o1 [Lapatinib] (partner 2 µM)
Procedure, shortened: (§1)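 Lung cancer cell lines, seeded in 1536-well plates, were treated the following day by pin tool with a single drug or with five library-drug doses (not always all listed) in √10 steps on top of a fixed anchor-drug dose. Cells were fixed and nuclei stained in one step after 5 days, and nuclei were counted. Relative viability is the nuclei count for treated wells divided by that for vehicle wells, reported as medians of duplicate plates.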

NVP-TAE684 + Trametinib = compound: COc1cc(N2CCC(N3CCN(C)CC3)CC2)ccc1Nc1ncc(Cl)c(Nc2ccccc2S(=O)(=O)C(C)C)n1 [NVP-TAE684] + CC(=O)Nc1cccc(-n2c(=O)n(C3CC3)c(=O)c3c(Nc4ccc(I)cc4F)n(C)c(=O)c(C)c32)c1 [Trametinib] (partner 0.02 µM)
Procedure, shortened: as §1

NVP-TAE684 + Linsitinib = compound: COc1cc(N2CCC(N3CCN(C)CC3)CC2)ccc1Nc1ncc(Cl)c(Nc2ccccc2S(=O)(=O)C(C)C)n1 [NVP-TAE684] + C[C@]1(O)C[C@@H](c2nc(-c3ccc4ccc(-c5ccccc5)nc4c3)c3c(N)nccn32)C1 [Linsitinib] (partner 1 µM)
Procedure, shortened: as §1

[1] = compound: C1=CC=C2C(=C1)N=C(S2)C(C#N)C3=NC(=NC=C3)NCCC4=CN=CC=C4 + COc1cc2c(Oc3ccc(NC(=O)C4(C(=O)Nc5ccc(F)cc5)CC4)cc3F)ccnc2cc1OCCCN1CCOCC1 [Foretinib] (partner 0.25 µM)
Procedure, shortened: as §1

| Cell Line | relative viability (CUDC-101 + Lapatinib; first compound 0.01 µM) | relative viability (CUDC-101 + Lapatinib; first compound 0.03162 µM) | relative viability (CUDC-101 + Lapatinib; first compound 0.1 µM) | relative viability (CUDC-101 + Lapatinib; first compound 0.3162 µM) | relative viability (CUDC-101 + Lapatinib; first compound 1 µM) | relative viability (NVP-TAE684 + Trametinib; first compound 0.2 µM) | relative viability (NVP-TAE684 + Trametinib; first compound 0.6325 µM) | relative viability (NVP-TAE684 + Trametinib; first compound 2 µM) | relative viability (NVP-TAE684 + Linsitinib; first compound 0.6325 µM) | relative viability (NVP-TAE684 + Linsitinib; first compound 2 µM) | relative viability ([1]; first compound 0.005 µM) | relative viability ([1]; first compound 0.01581 µM) | relative viability ([1]; first compound 0.05 µM) | relative viability ([1]; first compound 0.1581 µM) | relative viability ([1]; first compound 0.5 µM) | relative viability (NVP-TAE684 + Linsitinib; first compound 0.2 µM) |
| --- | --- | --- | --- | --- | --- | --- | --- | --- | --- | --- | --- | --- | --- | --- | --- | --- |
| NCI-H1993 | 0.758 | 0.899 | 1.03 | 0.995 | 0.635 | 0.359 | 0.461 | 0.521 | 0.66 | 0.658 | 0.803 | 0.768 | 0.723 | 0.783 | 0.665 |  |
| NCI-H2009 | 0.924 | 1 | 1.07 | 0.925 | 0.87 | 0.302 | 0.234 | 0.178 | 1.21 | 0.986 | 1.17 | 1.2 | 1.18 | 1.32 | 1.23 | 1.08 |
| NCI-H2023 | 0.991 | 0.813 | 1.04 | 0.936 | 0.402 | 0.462 | 0.498 | 0.155 | 0.669 | 0.265 | 0.708 | 0.933 | 0.857 | 1.09 | 0.907 | 0.517 |
| NCI-H2085 | 0.817 | 0.686 | 0.826 | 0.752 | 0.502 | 0.579 | 0.503 | 0.4 | 0.82 | 0.7 | 0.891 | 0.811 | 0.888 | 1.03 | 0.979 | 0.928 |
| NCI-H2087 | 0.986 | 1.37 | 1.04 | 1.04 | 0.761 | 0.175 | 0.211 | 0.168 | 1.04 | 0.982 | 1.08 | 1.14 | 1.1 | 1.12 | 0.969 | 1.04 |
| NCI-H2126 | 0.764 | 0.785 | 0.758 | 0.803 | 0.635 | 0.628 | 0.637 | 0.388 | 0.684 | 0.688 | 1.14 | 1.2 | 1.22 | 1.19 | 1.34 | 0.701 |
| NCI-H2228 | 1.06 | 1.49 | 1.12 | 0.977 | 0.412 | 0.312 | 0.249 | 0.23 | 0.321 | 0.285 | 0.971 | 0.84 | 0.993 | 1.04 | 0.76 | 0.458 |
| NCI-H2347 | 1.08 | 0.918 | 1.03 | 1.05 | 0.91 | 0.275 | 0.264 | 0.355 | 0.976 | 0.875 | 1.1 | 0.821 |  | 0.662 | 1.17 | 1.06 |
| NCI-H2405 | 1.25 | 1.05 | 1.19 | 1.27 | 0.917 | 0.578 | 0.556 | 0.336 | 0.849 | 0.573 | 1.02 | 1.04 | 1.04 | 1.07 | 1 |  |
| NCI-H3122 | 1.07 | 0.984 | 0.882 | 1.02 | 1.01 | 0.12 | 0.148 | 0.0944 | 0.222 | 0.184 | 0.839 | 0.87 | 0.917 | 1.05 | 0.969 | 0.266 |
| PC-3 [JPC-3] | 0.419 | 0.462 | 0.443 | 0.364 | 0.32 | 0.721 | 0.572 | 0.58 | 0.934 | 0.843 | 0.984 | 1.12 | 1.07 | 1.14 | 0.961 | 0.96 |
| PC-14 | 0.328 | 0.282 | 0.315 | 0.321 | 0.171 | 0.677 | 0.62 | 0.0712 | 1.1 | 0.851 | 0.899 | 1.05 | 0.917 | 1.08 | 0.819 | 0.934 |
| RERF-LC-KJ | 0.893 | 0.905 | 0.841 | 0.826 | 0.698 | 0.861 | 0.772 | 0.664 | 1.01 |  | 0.966 | 0.826 | 0.86 | 0.882 | 0.762 | 0.921 |
| SK-LU-1 | 1.01 | 0.922 | 0.712 | 0.844 | 0.446 | 0.42 | 0.445 | 0.383 | 1.2 | 0.693 | 0.749 | 0.824 | 0.867 | 0.991 | 0.884 | 1.19 |
| SK-MES-1 | 0.466 | 0.462 | 0.451 | 0.461 | 0.388 | 0.578 | 0.492 | 0.378 | 1.05 | 0.837 | 0.836 | 1.07 | 0.863 | 1.11 | 0.993 | 0.985 |
| SW 1573 | 1.05 | 1.15 | 1.23 | 1.2 | 0.813 | 0.651 | 0.495 | 0.21 | 0.692 | 0.795 | 0.963 | 0.792 | 0.949 | 0.994 | 0.892 | 0.907 |

Source: the supplement of paper PMC10307832
